Data on nine compounds can be found in PubChem BioAssay (NCI).

Among the test systems are 786-0 renal; A498 renal; DU-145 prostate; M14 melanoma; MDA-MB-435; NCI-H226 lung; NCI-H23 lung; NCI/ADR-RES ovarian; RPMI-8226 leukemia; SN12C renal.
Holding throughout (experiment): NCI anticancer screen, dose series, 48 h

SMILES strings stand for the structures.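 A five-concentration, 48-hour dose response in 96-well plates underlies each endpoint, interpolated linearly between surrounding concentrations. Abbreviation: GI50, concentration required for 50% inhibition of growth. Definition used: TGI = concentration required for complete inhibition of growth.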

On to `O=C1NC(=O)C(=Cc2cn(Cc3ccccc3)c3ccccc23)C(=O)N1`, for which the GI50 with 786-0 renal was 17.1 µM; in the assay with A498 renal, 0.125 µM; with DU-145 prostate it was 17.5 µM; in the assay with M14 melanoma, 17.9 µM; in the assay with MDA-MB-435, 17.9 µM; with NCI-H226 lung, 0.951 µM. The GI50 was 14.1 µM with NCI-H23 lung, 18.4 µM in the assay on NCI/ADR-RES ovarian, 8.23 µM in the assay on RPMI-8226 leukemia and 13.5 µM in the assay with SN12C renal. Moreover, the TGI in the assay on 786-0 renal was determined as 33 µM; with A498 renal it was 0.594 µM; in the assay on DU-145 prostate it was 40.4 µM; with M14 melanoma, 44.4 µM; in the assay with MDA-MB-435, 42.3 µM; with NCI-H226 lung, 3.29 µM. Also, the TGI in the assay with NCI-H23 lung was 34.2 µM; in the assay on NCI/ADR-RES ovarian, 50.3 µM; in the assay on RPMI-8226 leukemia, > 61.3 µM; with SN12C renal it was 40 µM.
Turning to `CN(C)CCN1C(=O)c2cccc3c(/C=C/CN4C(=O)c5cccc6cccc(c56)C4=O)ccc(c23)C1=O`, the GI50 in the assay with 786-0 renal is 4.5 µM; in the assay with A498 renal it was 34.1 µM; with DU-145 prostate it was > 100 µM; with M14 melanoma it was > 100 µM; in the assay with MDA-MB-435 it was > 100 µM; in the assay on NCI-H226 lung it was 1.92 µM. For the same compound, the GI50 in the assay with NCI-H23 lung was > 100 µM; in the assay on NCI/ADR-RES ovarian, > 100 µM; with RPMI-8226 leukemia, > 100 µM; in the assay with SN12C renal, 21.9 µM. Moreover, the TGI in the assay on 786-0 renal was 19.5 µM; in the assay with A498 renal, > 100 µM; in the assay with DU-145 prostate it was > 100 µM; in the assay with M14 melanoma, > 100 µM; with MDA-MB-435, > 100 µM; in the assay with NCI-H226 lung, 35.4 µM. Also, the TGI was > 100 µM with NCI-H23 lung, > 100 µM in the assay on NCI/ADR-RES ovarian, > 100 µM with RPMI-8226 leukemia and 70.5 µM in the assay with SN12C renal.
Take `COc1ccc2nc(C)cc(Sc3nc4ccccc4s3)c2c1`: the GI50 with 786-0 renal was 0.562 µM; with A498 renal, 1.37 µM; in the assay with DU-145 prostate, 2.2 µM; in the assay on M14 melanoma, 1.92 µM; in the assay with MDA-MB-435, 1.76 µM; with NCI-H226 lung, 0.728 µM. Also, the GI50 with NCI-H23 lung is 1.78 µM; with NCI/ADR-RES ovarian, 1.43 µM; with RPMI-8226 leukemia it was 0.362 µM; in the assay on SN12C renal it was 1.7 µM. The TGI in the assay with 786-0 renal worked out at 3.28 µM; with A498 renal, 4.87 µM; in the assay with DU-145 prostate, 7.55 µM; in the assay on M14 melanoma, 9.34 µM; with MDA-MB-435 it was 5.39 µM; in the assay with NCI-H226 lung it was 4.1 µM. For the same compound, the TGI with NCI-H23 lung is 7.56 µM; in the assay on NCI/ADR-RES ovarian, 4.42 µM; in the assay on RPMI-8226 leukemia it was 2.16 µM; with SN12C renal it was 7.06 µM.
Consider `COc1c(OC)c(OC)c2c(=O)cc(-c3ccc(OC(C)C)cc3)oc2c1OC`, for which the TGI in the assay with 786-0 renal is > 49.3 µM; in the assay with A498 renal, 36.9 µM; in the assay with DU-145 prostate, > 50.8 µM; in the assay with M14 melanoma, 43.1 µM; with MDA-MB-435 it was > 53.5 µM; with NCI-H226 lung it was 32.3 µM. Further, the TGI is > 56.5 µM with NCI-H23 lung, 61.6 µM with NCI/ADR-RES ovarian, 23.7 µM in the assay with RPMI-8226 leukemia and > 53.4 µM in the assay on SN12C renal.
Turning to `Cc1nn(C)c2ncnc(N/N=C/c3cccc(O)c3O)c12`, the GI50 with 786-0 renal was 1.22 µM; in the assay on A498 renal it was 2.97 µM; in the assay on DU-145 prostate it was 0.558 µM; with M14 melanoma, 0.259 µM; in the assay with MDA-MB-435, 0.609 µM; in the assay with NCI-H226 lung, 3.69 µM. Also, the GI50 was 0.774 µM with NCI-H23 lung, 0.336 µM in the assay on NCI/ADR-RES ovarian, 0.526 µM with RPMI-8226 leukemia and 0.481 µM with SN12C renal. For the same compound, the TGI with 786-0 renal is 11.7 µM; in the assay with A498 renal, 16.3 µM; in the assay on DU-145 prostate, > 100 µM; in the assay on M14 melanoma, 1.72 µM; in the assay with MDA-MB-435, > 100 µM; in the assay on NCI-H226 lung, > 49.2 µM. Besides, the TGI was > 68.2 µM in the assay with NCI-H23 lung, > 55.8 µM in the assay with NCI/ADR-RES ovarian, > 100 µM in the assay with RPMI-8226 leukemia and > 100 µM in the assay with SN12C renal.
On to `CCCCCCCCCCCNC=O`, for which the TGI was > 100 µM in the assay on 786-0 renal; 86.7 µM in the assay on A498 renal; > 100 µM in the assay on DU-145 prostate; > 100 µM with M14 melanoma; > 100 µM in the assay on MDA-MB-435; > 100 µM in the assay on NCI-H226 lung. Further, the TGI in the assay with NCI-H23 lung was > 100 µM; in the assay with NCI/ADR-RES ovarian, 96.6 µM; in the assay on RPMI-8226 leukemia, 78.7 µM; with SN12C renal it was > 100 µM.
For `NC(N)=NC(N)=Nc1ccc(C(=O)O)cc1`, the TGI in the assay with 786-0 renal, with A498 renal, in the assay on DU-145 prostate, in the assay on M14 melanoma, in the assay on MDA-MB-435 and in the assay with NCI-H226 lung was > 100 µM in each case. Further, the TGI in the assay on NCI-H23 lung, in the assay on NCI/ADR-RES ovarian, in the assay on RPMI-8226 leukemia and in the assay on SN12C renal was > 100 µM throughout.
Turning to `CCC[CH2][Sn]([CH2]CCC)([CH2]CCC)/[C](=C/[Si](C)(C)c1ccccc1)c1ccc2c(c1)OCO2`, the GI50 in the assay with 786-0 renal was 16 µM; in the assay with A498 renal, 30.5 µM; in the assay on DU-145 prostate, 21.7 µM; in the assay with M14 melanoma, 16.8 µM; with MDA-MB-435 it was 15.7 µM; with NCI-H226 lung, 19.9 µM. Further, the GI50 was 25.6 µM in the assay on NCI-H23 lung, 26.2 µM in the assay with NCI/ADR-RES ovarian, 20.7 µM with RPMI-8226 leukemia and 19.1 µM in the assay with SN12C renal. The TGI in the assay on 786-0 renal amounted to 30.9 µM; in the assay on A498 renal, 70.6 µM; in the assay on DU-145 prostate, 48.6 µM; in the assay with M14 melanoma, 35.2 µM; in the assay on MDA-MB-435 it was 31.3 µM; with NCI-H226 lung it was 42.9 µM. Further, the TGI is 92.9 µM in the assay with NCI-H23 lung, 86.3 µM in the assay on NCI/ADR-RES ovarian, 77.8 µM in the assay with RPMI-8226 leukemia and 39 µM with SN12C renal.
On to `O=C(O)COc1ccc(OCC(=O)O)cc1`, for which the GI50 is 0.456 µM with 786-0 renal; 1.06 µM in the assay with A498 renal; 0.325 µM in the assay with DU-145 prostate; 0.847 µM with M14 melanoma; 3.36 µM with MDA-MB-435; 0.19 µM in the assay with NCI-H226 lung. In addition, the GI50 with NCI-H23 lung is 0.513 µM; in the assay on NCI/ADR-RES ovarian it was 56.6 µM; in the assay on RPMI-8226 leukemia, 0.343 µM; in the assay with SN12C renal, 0.275 µM. The TGI in the assay with 786-0 renal turned out to be 3.62 µM; in the assay with A498 renal it was 4.87 µM; in the assay with DU-145 prostate, 12.7 µM; in the assay with M14 melanoma, 12.3 µM; with MDA-MB-435 it was 16.4 µM; with NCI-H226 lung, 0.789 µM. The TGI is 3.09 µM in the assay on NCI-H23 lung, > 100 µM in the assay with NCI/ADR-RES ovarian, 6.76 µM in the assay on RPMI-8226 leukemia and 18 µM with SN12C renal.
